Laboratory results taken from patent US6521659B2, “Compositions containing a substituted indolealkanoic acid and an angiotensin converting enzyme inhibitor” (Institute for Pharmaceutical Discovery, LLC, priority 2000, dated 2003).
Read-outs that look alike come from different tables or passages of the source.

Columns and labels:
diabetic (db/db) mice = experiment: Blood glucose lowering in diabetic (db/db) mice; assay type: in vivo, mouse; conditions: for Blood glucose: n = 12
Experimental: The mice are obese, extremely hyperglycemic and also hyperinsulinemic.
Male db/db mice (8 weeks old) were obtained from Jackson Laboratories and were allowed to acclimate for 1 week before the experiment commenced. A sample of blood was collected from the tail after which plasma glucose was isolated by centrifigation and the glucose concentration was measured in the plasma enzymatically on the COBAS automated clinical analyzer equipped with a glucose kit that utilized hexokinas to quantitate the amount of glucose in a sample (Roche Diagnostic Systems, kit #47382). Mice with the lowest plasma glucose values were removed from the study and the remaining mice were randomized according to their individual plasma glucose values into 3 treatment groups (n=12 per group), control untreated db/db mice, 100 mg/kg/d compound treated db/db mice and 300 mg/kg/d compound treated db/db mice.
Treatment with the compound was carried out for 4 weeks during which time blood glucose levels were measured weekly from the tail using the One Touch II blood glucose meter (Lifescan, Inc). The blood glucose values of mice in the compound treated groups was compared to the blood glucose values of mice from the control untreated group by an analysis of variance followed by Dunett's Comparison Test (one-tailed).

[1] = test system: streptozotocin-induced diabetic rats; experiment: Serum/plasma triglyceride levels in streptozotocin-induced diabetic rats; assay type: in vivo, rat; conditions: 10 mg/kg/day
Experimental: Tests are conducted to determine the effect of compounds on serum triglyceride levels in streptozotocin-induced diabetic rats.
Control animals receive citrate buffer.
Two hours after STZ injection, food is returned.
The nondiabetic and diabetic control groups are administered vehicle.

rat aortic ring = experiment: Rat aortic ring assay (anti-angiogenic activity); assay type: cell-based
Experimental: Final concentration of DMSO in all wells is 1%.
Statistical analysis conducted with Kruskal-Wallis Test and Dunns multiple comparisons

[2] = test system: STZ treated diabetic minipigs; experiment: Wound healing in STZ treated diabetic minipigs; assay type: in vivo, minipig; conditions: STZ diabetic minipigs with wounds, compared with untreated control STZ diabetic minipigs
Experimental: STZ treated diabetic minipigs having various wounds are administered the compound of Example 3. These animals are compared with control STZ diabetic minipigs also having wounds but that are not treated with the compound. […] Accordingly, the compounds of the invention are capable of promoting wound healing in diabetic mammals.

`O=C(O)Cn1cc(Cc2nc3c(F)c(F)cc(F)c3s2)c2ccccc21` [Example 3, 3-(4,5,7-Trifluorobenzothiazol-2-yl)methyl-indole-N-acetic Acid] was tested, and the Blood glucose (diabetic (db/db) mice; 100 mg/kg/d in diet, Week 0, mean ± SD) was 323 ± 79 mg/dL, the Blood glucose (diabetic (db/db) mice; 100 mg/kg/d in diet, Week 2, mean ± SD) was 284 ± 75 mg/dL and the Blood glucose (diabetic (db/db) mice; 100 mg/kg/d in diet, Week 3, mean ± SD) was 258 ± 60 mg/dL. For the same compound, the Blood glucose (diabetic (db/db) mice; 100 mg/kg/d in diet, Week 4, mean ± SD) was 303 ± 79 mg/dL, the “mean percent change in glucose with drug treatment (lowering)” value (diabetic (db/db) mice; 100 mg/kg/d, after four weeks) was 12% and the Blood glucose (diabetic (db/db) mice; 300 mg/kg/d in diet, Week 0, mean ± SD) was 313 ± 52 mg/dL. It also gave a Blood glucose (diabetic (db/db) mice; 300 mg/kg/d in diet, Week 2, mean ± SD) of 240 ± 85 mg/dL, a Blood glucose (diabetic (db/db) mice; 300 mg/kg/d in diet, Week 3, mean ± SD) of 197 ± 77 mg/dL and a Blood glucose (diabetic (db/db) mice; 300 mg/kg/d in diet, Week 4, mean ± SD) of 207 ± 77 mg/dL. The “mean percent change in glucose with drug treatment (lowering of blood glucose)” value (diabetic (db/db) mice; 300 mg/kg/d, after four weeks) was 40%, the “Triglyceride lowering compared to diabetic” value ([1]; STZ diabetic rats, 10 mg/kg/d by gavage) was 68% and the Plasma triglycerides ([1]; po, 4 h) was 149 ± 29 mg/dL. The “Linear Microvascular Growth” value (rat aortic ring) was 1.97 ± 0.66, n = 5 mm, the “Linear Microvascular Growth” value (rat aortic ring; 50 µM) was 2.31 ± 0.71, n = 5 mm and the “Linear Microvascular Growth” value (rat aortic ring; Prevention (Days 1-6), 50 micromolar, mean ± SD, n = 6) was 1.46 ± 0.48, n = 6 mm. The “degree of wound healing” value [2] was “significant increase in the degree of wound healing”.
